Columns and labels:
Experiment in all cases: relative viability (nuclei count vs DMSO), 5 days (fraction); higher = more cells survive
[1] = compound: COc1cc2nc(N3CCCN(C)CC3)nc(NC3CCN(Cc4ccccc4)CC3)c2cc1OC + N=C(N)NC(=N)NCCc1ccccc1 [Phenformin] (partner 250 µM)
Method in brief: (§1)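 A single step with final 0.05% Triton X-100, 1% formaldehyde and 1 ug/ml Hoechst fixed the cells and stained nuclei 5 days after treatment. Lung cancer cell lines in 1536-well plates had been treated by pin tool the day after seeding with one drug alone or a fixed anchor-drug dose plus five library-drug doses (not always all listed) in √10 steps, and nuclei were counted on 4× images. Relative viability is the ratio of nuclei in treated wells to nuclei in vehicle wells, taken as the median of duplicate plates.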

[2] = compound: COc1cc2nc(N3CCCN(C)CC3)nc(NC3CCN(Cc4ccccc4)CC3)c2cc1OC + O=C(CCCCCCC(=O)Nc1ccccc1)NO [Vorinostat] (partner 1 µM)
Method in brief: as §1

AZD6482 + Lapatinib = compound: Cc1cc([C@@H](C)Nc2ccccc2C(=O)O)c2nc(N3CCOCC3)cc(=O)n2c1 [AZD6482] + CS(=O)(=O)CCNCc1ccc(-c2ccc3ncnc(Nc4ccc(OCc5cccc(F)c5)c(Cl)c4)c3c2)o1 [Lapatinib] (partner 2 µM)
Method in brief: as §1

AZD6482 + Vorinostat = compound: Cc1cc([C@@H](C)Nc2ccccc2C(=O)O)c2nc(N3CCOCC3)cc(=O)n2c1 [AZD6482] + O=C(CCCCCCC(=O)Nc1ccccc1)NO [Vorinostat] (partner 1 µM)
Method in brief: as §1

Cell Line | relative viability ([1]; first compound 0.2 µM) | relative viability ([1]; first compound 0.6325 µM) | relative viability ([1]; first compound 2 µM) | relative viability ([1]; first compound 6.325 µM) | relative viability ([2]; first compound 0.2 µM) | relative viability ([2]; first compound 0.6325 µM) | relative viability ([2]; first compound 2 µM) | relative viability ([2]; first compound 6.325 µM) | relative viability (AZD6482 + Lapatinib; first compound 0.08 µM) | relative viability (AZD6482 + Lapatinib; first compound 0.253 µM) | relative viability (AZD6482 + Lapatinib; first compound 0.8 µM) | relative viability (AZD6482 + Lapatinib; first compound 2.53 µM) | relative viability (AZD6482 + Lapatinib; first compound 8 µM) | relative viability (AZD6482 + Vorinostat; first compound 0.08 µM) | relative viability (AZD6482 + Vorinostat; first compound 0.253 µM) | relative viability (AZD6482 + Vorinostat; first compound 0.8 µM) | relative viability (AZD6482 + Vorinostat; first compound 2.53 µM) | relative viability (AZD6482 + Vorinostat; first compound 8 µM)
LXF-289 | 0.511 | 0.507 | 0.527 | 0.525 | 0.722 | 0.783 | 0.796 | 0.654 | 0.924 | 0.913 | 0.892 | 0.821 | 0.937 | 0.814 | 0.741 | 0.87 | 0.729 | 0.752
PC-14 | 0.584 | 0.703 | 0.527 | 0.265 | 0.674 | 0.674 | 0.625 | 0.0432 | 0.257 | 0.234 | 0.255 | 0.196 | 0.219 | 0.667 | 0.716 | 0.712 | 0.487 | 0.769
NCI-H650 | 0.454 | 0.459 | 0.466 | 0.427 | 0.573 | 0.391 | 0.475 | 0.321 | 0.999 | – | 0.948 | 0.454 | 0.534 | 0.464 | 0.489 | 0.372 | 0.256 | 0.301
NCI-H1666 | 0.545 | 0.574 | 0.542 | 0.505 | 1.08 | 0.943 | 0.958 | 1.06 | 0.283 | 0.616 | 0.556 | 0.517 | 0.417 | 0.848 | 1.04 | 1.04 | 0.813 | 1.02
NCI-H2085 | 0.776 | 0.743 | 0.786 | 0.641 | 0.799 | 0.954 | 0.802 | 0.724 | 0.42 | 0.407 | 0.457 | 0.366 | 0.372 | 0.557 | 0.402 | 0.517 | 0.398 | 0.341
NCI-H1734 | 0.383 | 0.383 | 0.389 | 0.346 | 0.813 | 0.76 | 0.778 | 0.717 | 0.933 | 1.02 | 1.16 | 0.632 | 0.612 | 0.804 | 0.68 | 0.801 | 0.52 | 0.582
NCI-H2126 | 0.493 | 0.601 | 0.538 | 0.472 | 0.8 | 0.802 | 0.688 | 0.69 | 0.635 | 0.644 | 0.636 | 0.519 | 0.49 | 0.728 | 0.703 | 0.577 | 0.389 | 0.432
EMC-BAC-2 | 0.531 | 0.477 | 0.496 | 0.523 | 0.431 | 0.427 | 0.448 | 0.508 | 0.852 | 0.869 | 0.886 | 0.695 | 0.828 | 0.534 | 0.413 | 0.526 | 0.341 | 0.316
NCI-H1993 | 0.528 | 0.442 | 0.528 | 0.501 | 0.778 | 0.798 | 0.855 | 0.661 | 0.779 | 0.791 | – | – | 0.784 | 0.742 | 0.73 | 0.569 | 0.376 | 0.47

— the supplement of paper PMC10307832
